Experimental data taken from patent US4374261A, “1-Ethyl-1,4-dihydro-6-(2-naphthyl)-4-oxo-nicotinic acid and esters thereof” (Hoffmann-La Roche Inc., priority 1981, dated 1983).

Experiments:
mouse = experiment: LD50 (mouse), acute toxicity; type: in vivo
rat = experiment: Turning rat test (unilateral 6-OHDA lesion of the medial forebrain bundle); type: in vivo
Protocol: Female rats weighing 150 g are anaesthetised with pentobarbital (50 mg kg^-1 i.p.) and fixed in a stereotaxic apparatus (David Kopf). A unilateral (right side) injection into the MFB (medial forebrain bundle) or 6-OHDA (6-hydroxy-dopamine), 3 μg as base, dissolved in 4 μl of Ringer solution containing 0.02% ascorbic acid, is carried out through a stainless-steel cannula (diameter 0.3 mm) connected to a microsyringe. The liquid is injected at a speed of 1 μl min^-1 by means of a high precision infusion pump. In order to reach the MFB (medial forebrain bundle), the following conditions are used: A=+3.8 mm, L (right)=0.9 mm, V=-3 mm according to the Atlas of Konig and Klippel.
After 3 weeks recovery period, the operated rats are injected with apomorphine, 1 mg kg^1- i.p.. Those animals showing a regular contralateral (i.e., away from the lesioned side) turning, recorded automatically during 1 hour in a rotometer, are selected for further experiments. At least one week is allowed between each injection of screening compounds. […]
The total number of ipsilateral or contralateral turns (full rotation around the vertical axes of the body) made by each rat, is automatically recorded over the time (usually 1 hour). 5 rats are injected for each dose and the mean of total turns per hour is determined.
A compound is said active, if it produces more than 100 turns/hour. […] The results are expressed as: […]

[1] = vs d-amphetamine and d-methamphetamine (Table I)

Q: What does the source list for `CCn1cc(C(=O)O)c(=O)cc1-c1ccc2ccccc2c1` [1-ethyl-1,4-dihydro-6-(2-naphthyl)-4-oxonicotinic acid]?
A: LD50 compared with d-amphetamine and d-methamphetamine (mouse; [1]): substantially lower LD50; LD50 compared with nomifensin (mouse; vs nomifensin): about the same LD50; strength of action compared with d-amphetamine and d-methamphetamine (rat; [1]): about the same strength of action; activity compared with nomifensin (rat; vs nomifensin): substantially superior to nomifensin
